The nature of this test: Percent inhibition of glucose uptake into chondrocytes prepared from the metacarpophalageal joints of mature cow at concentration of 50 uM. In kind it is functional. To be noted: Bos taurus.

As for `O=C1c2cccc(O)c2C(=O)c2c(O)cc(-c3nn[nH]n3)cc21`, the inhibition at 50 µM is 103%.

Take `COc1ccc(OC)c2c1C(=O)c1ccc(-c3nn[nH]n3)cc1C2=O`: the inhibition at 50 µM worked out at 81.8%.

As for `COc1cc(C(=O)O)c(OC)c2c1C(=O)c1ccccc1C2=O`, the inhibition at 50 µM is 14%.

`CCOc1cccc2c1C(=O)c1c(OCC)cc(C(=O)O)cc1C2=O`: the inhibition at 50 µM is 18.5%.

On to `COc1cccc2c1C(=O)c1c(OC)cc(C(=O)O)cc1C2=O`, for which the inhibition at 50 µM was -1.9%.

For the compound `CC(=O)Oc1ccc2c(c1)C(=O)c1cc(C(=O)O)ccc1C2=O`, the inhibition at 50 µM worked out at 1.6%.

With `COc1cccc2c1C(=O)c1c(OC)cc(-c3nn[nH]n3)cc1C2=O`, the inhibition at 50 µM is 36.2%.

As to `CCOc1cccc2c1C(=O)c1c(OCC)cc(-c3nn[nH]n3)cc1C2=O`, the inhibition at 50 µM amounted to 92%.

Turning to `COc1cc(C(=O)O)cc2c1C(=O)c1c(OC)ccc(OC)c1C2=O`, the inhibition at 50 µM was found to be 4.8%.

Regarding `COc1ccc(OC)c2c1C(=O)c1ccc(C(=O)O)cc1C2=O`, the inhibition at 50 µM was determined as 25.3%.

As for `O=C(O)c1cc(O)c2c(c1)C(=O)c1c(O)ccc(O)c1C2=O`, the inhibition at 50 µM worked out at 22.1%.

`CCOc1ccc(OCC)c2c1C(=O)c1ccc(C(=O)O)cc1C2=O`: the inhibition at 50 µM was determined as 37.7%.

Turning to `O=C(O)c1ccc2c(c1)C(=O)c1cc(O)ccc1C2=O`, the inhibition at 50 µM was determined as 16.9%.

As for `O=C(O)c1cc(O)c2c(c1O)C(=O)c1ccccc1C2=O`, the inhibition at 50 µM was 24.9%.

For the compound `CC(=O)Oc1ccc(OC(C)=O)c2c1C(=O)c1ccc(C(=O)O)cc1C2=O`, the inhibition at 50 µM turned out to be 14.8%.

Regarding `CCCOc1cccc2c1C(=O)c1c(OCCC)cc(C(=O)O)cc1C2=O`, the inhibition at 50 µM was found to be 56.7%.

Take `Oc1cc(O)c2c(c1)O[C@H](c1ccc(O)c(O)c1)[C@@H](O)C2` [CIANIDANOL]: the inhibition at 50 µM was determined as 12.1%.

In the case of `O=C(CCc1ccc(O)cc1)c1c(O)cc(O)cc1O[C@@H]1O[C@H](CO)[C@@H](O)[C@H](O)[C@H]1O` [PHLORIZIN], the inhibition at 50 µM turned out to be 11.9%.

Turning to `O=C(O)c1cc(O)c2c(c1)C(=O)c1cccc(O)c1C2=O` [RHEIN], the inhibition at 50 µM amounted to 3%.

Values taken from ChEMBL document CHEMBL1152105, “Anthraquinones related to rhein inhibit glucose uptake into chondrocytes. A mechanism for anti-osteoarthritis drugs?” (1997).
